Laboratory results as given in patent US20180251425A1, “2,3,5 TRISUBSTITUTED PYRROLE DERIVATIVES AS TOPOISOMERASE INHIBITORS AND THERAPEUTIC USES THEREOF” (UNIVERSITY OF MYSORE, priority 2015, published 2018).

Key:
Molt4 cells [1] = test: Cell cycle analysis (propidium iodide, flow cytometry); format: cell-based, Human; settings: Molt4 cells, 0.01, 0.1, 0.25 and 0.5 μM, concentration dependent
Method: The DNA content analysis was performed by using Flow cytometer, Molt4 cells seeded (0.5×10^5 cells/ml) in 6 well plate and treated with different concentrations of ASR6 (0.01, 0.1, 0.25 and 0.5 μM) at 37° C. for 48 h. After incubation cells were harvested, processed and fixed in 80% chilled ethanol. Overnight treated with RNase-A (50 μg/ml) incubated at 37° C. Further cells stained with propidium iodide (5 μg/ml) and cell cycle progression was monitored using flow cytometer (FACSVerse™ BD Biosciences, USA). A minimum of 10000 cells were recorded. Results were analyzed using Flowing Software (Version 2.5) and plotted histograms.
In FIG. 2 A, B histograms representing different phases of cell cycle distribution of ASR6 (0.01, 0.1, 0.25 and 0.5 μM for 24 h and 48 h) treated Molt4 cells is shown.

[2] = Cytotoxicity in HEK293T cells; format: cell-based; settings: human, HEK293T cells (human embryonic kidney); read-out: Cytotoxicity IC 50 in μM (Cell lines) HEK293T
Method: (§1) Human cancer cell lines, K562, MCF7, HeLa and HEK 293T were purchased from National Centre for Cell Science, Pune, India. Cells were grown in RPMI 1640/MEM/DMEM supplemented with 10% heat-inactivated fetal bovine serum (FBS), 100 U/mL of Penicillin, and 100 μg of streptomycin/mL and incubated at 37° C. in a humidified atmosphere containing 5% CO2.
The human T cell leukemia cell line Molt4, Human acute lymphoblastic leukemia (ALL) cell line Nalm6, Human acute myelocytic leukemia (AML) cell line Reh, chronic myelogenous leukemia (CML) cell line K562, Human breast adenocarcinoma cell lines like MCF7 and human kidney cell line HEK 293T (Human embryonic kidney cell line) were selected for the purpose of preliminary anticancer screening of newly synthesized compounds (ASR1 to ASR15). […]
To determine the growth inhibitory activity of the drug, 0.5×10^5 cell/ml were plated in 24 well (Biofil, USA.) in 1 ml of complete medium and treated with various concentration of the compound to test, cells were stained with 0.4% trypan blue and counted on a hemocytometer after treatment with compounds at 48 and 72 h time point. […]

HeLa = test: Cytotoxicity in HeLa cells; format: cell-based; settings: Homo sapiens, read-out: Cytotoxicity IC 50 in μM (Cell lines) HeLa
Method: as §1
Cytotoxic effect of the newly synthesized compounds against leukemic cells was assessed using 3-(4, 5-dimethyl-2-yl02, 5-diphenyl tetrazolium bromide (MTT) assay. After exposure of compound at different concentration (0.01, 0.1, 0.5, 1, 10, 50 and 100 μM) cells were harvested and transferred into 96 well plate, MTT (5 mg/ml) was added and incubate at 37° C. for 4 h and formazan crystals were dissolved by adding solubilizing agent (10% SDS and 50% dimethyl formamide) for 1 h, finally plate was read at 570 nm (Bio-Rad, USA). Results were represented as inhibition of percentage of cell proliferation in bar diagram (n=3) (FIGS. 1 A, C, E and G). […]

Molt4 cells [3] = test: Mitochondrial membrane potential assay (JC-1); format: cell-based, Human; settings: Molt4 cells, 0.1, 0.25 and 0.5 μM, 48 h
Method: Molt4 cells were seeded in 12 well plate (0.5×10^5 cells/ml), treated with different concentration of ASR6 for 48 h, (DMSO treated cells was used as vehicle control), washed with 1× phosphate buffered saline and stained with JC-1 dye (5,5′,6,6′-Tetrachloro-1,1′,3,3′-tetraethylbenzimidazolo carbocyanine iodide (0.5 μg/ml) (Calbiochem, USA) in 1 ml of media, incubated at 37° C. for 30 min. Samples were washed with phosphate buffered saline and finally resuspended the cell pellet in 300 μl of 1× phosphate buffered saline and acquired (FACSVerse™, BD Biosciences, USA) using Cell Quest Pro Software. Minimum of 10,000 cells were acquired per sample and 2, 4-Dinitrophenol (2, 4-DNP) used as positive control. Results were analyzed Flowing Software (Version 2.5) and data were presented.

Molt4 = test: Cytotoxicity (MTT / trypan blue) in Molt4 cells; format: cell-based; settings: Homo sapiens, MOLT-4, read-out: Cytotoxicity IC 50 in μM (Cell lines) Molt4
Method: as §1
(§2) Nalm6, Molt4 and Reh cells were provided by Dr. Sathees C. Raghavan, Department of Biochemistry, IISc, Bangalore. The cells were grown under the similar culture conditions as mentioned above.
(§3) The human T cell leukemia cell line Molt4, Human acute lymphoblastic leukemia (ALL) cell line Nalm6, Human acute myelocytic leukemia (AML) cell line Reh, chronic myelogenous leukemia (CML) cell line K562, Human breast adenocarcinoma cell lines like MCF7 and human kidney cell line HEK 293T (Human embryonic kidney cell line) were selected for the purpose of preliminary anticancer screening of newly synthesized compounds (ASR1 to ASR15). To check the cytotoxicity, trypan blue dye exclusion assays, MTT assay were employed as described earlier Further, Cell cycle analysis, Mitochondrial membrane potential, Annexin-V FITC staining assay were also performed in order to understand the mode of cell death after treatment with ASR6. Further, ASR6 was also tested for its ability to inhibit topoisomerase I and II activity in vitro.
(§4) Cytotoxic effect of the newly synthesized compounds against leukemic cells was assessed using 3-(4, 5-dimethyl-2-yl02, 5-diphenyl tetrazolium bromide (MTT) assay. After exposure of compound at different concentration (0.01, 0.1, 0.5, 1, 10, 50 and 100 μM) cells were harvested and transferred into 96 well plate, MTT (5 mg/ml) was added and incubate at 37° C. for 4 h and formazan crystals were dissolved by adding solubilizing agent (10% SDS and 50% dimethyl formamide) for 1 h, finally plate was read at 570 nm (Bio-Rad, USA). Results were represented as inhibition of percentage of cell proliferation in bar diagram (n=3) (FIGS. 1 A, C, E and G).
(§5) To determine the growth inhibitory activity of the drug, 0.5×10^5 cell/ml were plated in 24 well (Biofil, USA.) in 1 ml of complete medium and treated with various concentration of the compound to test, cells were stained with 0.4% trypan blue and counted on a hemocytometer after treatment with compounds at 48 and 72 h time point. Results were represented as number of viable cells/ml in bar diagram (FIGS. 1 B, D, F, and H) (n=3).

Molt4 cells [4] = test: Annexin V-FITC/PI staining for apoptosis; format: cell-based, Human; settings: 0.25 & 0.5 μM, 48 h
Method: To identify induction of apoptosis after treatment withASR6 in Molt4 cells, annexin V-FITC and propidium iodide staining was carried out. Briefly, Molt4 cells (0.5×10^5 cells per ml) were seeded in 24 well plate and treated with ASR6 (0.25 & 0.5 μM; 48 h). Cells were washed with 1× phosphate buffered saline and suspended in cell binding buffer, stained with Annexin V-FITC (0.2 mg/ml) and propidium iodide (0.05 mg/ml)(Santacruz, USA), and incubated in dark for 20 min at room temperature. Finally cells were subjected to FACS analysis (FACSVerse™BD Bioscience, USA) (10,000 cells were acquired). The results were analyzed in WinMDI 2.9 Software, bar diagram was plotted using at least two independent experiments with error bar.

Reh = test: Cytotoxicity (MTT / trypan blue) in Reh cells; format: cell-based; settings: Homo sapiens, read-out: Cytotoxicity IC 50 in μM (Cell lines) Reh
Method: as §1, §2, §3, §4, §5

Nalm6 = test: Cytotoxicity (MTT / trypan blue) in Nalm6 cells; format: cell-based; settings: Homo sapiens, NALM-6, read-out: Cytotoxicity IC 50 in μM (Cell lines) Nalm6
Method: as §1, §2, §3, §4, §5

CCOC(=O)c1[nH]c(-c2ccc(Cl)cc2)cc1-c1cccnc1 [ASR6, Ethyl 5-(4-chlorophenyl)-3-(pyridin-3-yl)-1H-pyrrole-2-carboxylate]
Cell cycle progression at 24 h (Molt4 cells [1]; 24 h): G2/M arrest
Cell cycle progression at 48 h (Molt4 cells [1]; 48 h): SubG1 phase (apoptosis)
IC50 [2]: 0.866 µM
IC50 (HeLa): 0.749 µM
Mitochondrial membrane potential (Molt4 cells [3]): reduction in mitochondrial membrane potential
IC50 (Molt4): 0.195 µM
Apoptotic cell population (annexin V-FITC/PI) (Molt4 cells [4]): significant increase in apoptotic cell population
IC50 (Reh): 0.36 µM
IC50 (Nalm6): 0.344 µM
